Legend:
[1] = system: spleen lymphocytes of C57BL/6 mice; test: In vivo treatment, lymphocyte stimulation assay, C57BL/6 mice
Protocol: The purpose of this assay is to challenge lymphocytes in microcultures with one or more polyclonal mitogens at concentrations that will induce mitogenesis within 72 hours of stimulation.
In the mouse model, spleens are removed from different strains of mice and the spleen cells are teased free and suspended in RPMI-1640 tissue culture medium at a concentration of usually 1×10^7 ml. These cells are dispensed at a concentration of 5.0×10^5 cells per microculture well in a 96 well flat bottom 96 well tissue culture plate. All testing of the compounds of this invention or mitogens are done in replicates of 10. The cells are then treated with PHA, Con-A, specific antigens, or buffer only. If in vitro testing is done, varying concentrations of the compounds of this invention or buffer only are added to the cells as well. After treatment with the mitogens and/or compounds of this invention, the cells are incubated for 72 hours. The response of these cells to mitogens and/or the compounds of this invention is assessed using ^14 C-thymidine labeling on the fourth day at a concentration of 0.01 μCi/well. The labeled cells are harvested using a lymphocyte harvestor and placed onto fibrous paper discs. A scintillation cocktail is added to vials contaning the discs and the results are obtained using a LKB-liquid scintillation counter (Model 1216/Rackbeta II). The data is expressed as a ratio of the cpm of the mitogen stimulated group to the control (non-mitogen) treated group=lymphocyte stimulation index (LSI).
The lymphocyte stimulation assay may be performed directly on spleen cells obtained from various strains of mice not treated with the compounds of this invention or on lymphocytes obtained from […]. […] Alternatively, the mice may be treated in vivo with the compounds of this invention by intraperitoneal multi-dose schedules, followed by sacrifice and harvesting spleen lymphocytes. These cells are then tested for their response to polyclonal mitogens or specific antigens used to immunize the mice. In this sytem however, no additional compound is added to the in vitro lymphocyte stimulation assay system.
Two strains of mice, C57BL/6 and BDF1 are treated for seven days with i.p. administration of either 25, 50, 100, 200, or 400 mg/kg of Cpd. 1 or just buffer. This is followed on the eighth day by a lymphocyte stimulation assay.
A comparison is made of the lymphocyte response to C57BL/6 mice treated 4 days with i.p. administration of either 50, 100, 200, 400 or 800 mg/kg of Cpd. 1, 50, 100, 200, 400 or 800 mg/kg of ascorbic acid (AA), or just buffer. This is followed on the fifth day by a lymphocyte stimulation assay.
Two strains of mice, C57BL/6 and BALB/c, are treated 4 days with i.p. administration of either 50, 100, 200, or 400 mg/kg of Cpd. 1, or just buffer. This is followed on the fifth day by a lymphocyte stimulation assay.
C57BL/6 mice were treated with four daily i.p. doses of either 50, 100, 200, or 400 mg/kg of Cpd. 1 or just buffer. On the fifth day a lymphocyte stimulation assay was performed.
Mice of the C57BL/6 strain were tested with i.p. administration of either 100, 200, 400 or 600 mg/kg of Cpd. 1 or just buffer. This was followed by removal of spleens and treatment of lymphocytes therein with mitogens PHA and Con-A.
The compound of Example 2, Cpd. 2, was tested in vivo by using C57BL/6 mice and treating them with […] or just buffer for four consecutive days by the i.p. route. On the fifth day a lymphocyte stimulation assay was performed.

[2] = system: FLC-745 cells; test: MLTC assay of CTL activity, FLC-745 target cells; assay type: cell-based
Description: A mixed lymphocyte tumor culture (MLTC) immunoassay, used to determine the cytotoxic lymphocyte (CTL) activity employs lymphocytes from either immunized (sensitized) mice or DBA/2 tumor dormant state animals in various stages of the tumor dormant state (TDS). The assay employs L5178Y target cells labeled with ^51 Chromium and effector cells (sensitized lymphocytes) from the above-mentioned sources. Effector-target cell ratios will vary with different experimental conditions and may or may not include irradiated stimulator L5178Y cells. Results are expressed as % lysis of target cells based on ratio of cpm of test group over cpm of total release (maximum) both of which are corrected for spontaneous release of ^51 Cr. The assay can be performed as an 8 or 18 hour release assay.
An MLTC assay is performed to assess the CTL activity and tumor target cell specificity of Cpd. 1. Tumor dormant spleen cells and normal spleen cells of DBA/2 mice are used as effector cells. Irradiated L5178Y cells are used as stimulator cells. ^51 Cr-labeled L5178Y cells and FLC-745 cells are used as target cells. The effector/target ratios studied are 100:1, 30:1 and 10:1.

[3] = system: L-1210 leukemia; test: Anti-cancer study, L-1210 leukemia in BDF1 mice; assay type: in vivo, mouse; details: seven days
Description: Mice of the BDF1 strain are given an i.p. inoculation of 10^6 L-1210 leukemia cells on day 0. Twenty-four hours later, groups of 7 mice each are started on a […] treatment regimen of various doses of the compounds of this invention. The experiment is continued according to the guidelines provided under the National Cancer Institute protocol for screening new anti-cancer agents and T/C ratios (median or mean survival time of treated groups over median or mean survival time of controls) are calculated. A T/C value ≥1.25 (or 125%) is considered significant anticancer activity.
(§1) Mice of the BDF1 strain, inoculated with L-1210 leukemia cells, are treated for seven days with either 25, 50, 100, 200 or 400 mg/kg of Cpd. 1 or just buffer. The National Cancer Institute protocol for screening new anti-cancer agents is followed and T/C ratios are calculated.
as §1, with “either 100” for “either 25, 50, 100, 200 or 400”, “Cpd. 1, 20 mg/kg of 5-fluorouracil (5-FU), a known anti-cancer agent,” for “Cpd. 1”

[4] = Dissolution in bicarbonate buffered saline; assay type: physicochemical; details: 0.238 molar bicarbonate buffered saline (0.85%)

Q: What does the source list for `Cc1ccc(C2(O)C(=O)OC3C(O)COC32O)o1.Cc1ccc(C2(O)C(=O)OC3C(O)COC32O)o1.O=C1CCC(=O)O1` (stereo not shown) [Cpd. 1]?
A: T-lymphocyte proliferation, PHA ([1]; 200 mg/kg i.p., 7 days): stimulation of T-lymphocyte proliferation; response to PHA ([1]; 400 mg/kg compared to 200 mg/kg, four daily doses): decrease in the response to PHA; PHA response ([1]; 400 mg/kg i.p., 7 days): strong suppression of the PHA response; Con-A response ([1]; 400 mg/kg i.p., 7 days, compared to 200 mg/kg): suppression of the Con-A response; DNA synthesis of spleen cell lymphocytes ([1]; 400 mg/kg, compared to 200 mg/kg, 4 days): suppress DNA synthesis; evidence of toxicity ([1]; 600 mg/kg i.p., five day administration): no evidence of toxicity; stimulation of lymphocytes ([1]; 600 mg/kg, compared to 100 to 400 mg/kg, five days): less stimulation; lymphocyte DNA synthesis, PHA and Con-A ([1]; 50, 100 and 200 mg/kg i.p., 4 days): tend to stimulate lymphocyte DNA synthesis; Con-A response ([1]; 50, 100 and 200 mg/kg i.p., 7 days): increased; response to polyclonal mitogens ([1]; 50-400 mg/kg i.p., four daily doses): Stimulation of the response to polyclonal mitogens; effect, Con-A ([1]; 50 to 200 mg/kg i.p., 4 days): significant stimulatory effect; lymphocyte DNA synthesis, PHA ([1]; 100 and 200 mg/kg i.p., 4 days): tend to stimulate lymphocyte DNA synthesis; Con-A and PHA treated lymphocytes ([1]; 100 to 400 mg/kg, five days): significant stimulation; DNA synthesis of spleen lymphocytes, PHA ([1]; 400 to 800 mg/kg i.p., 4 days): suppress DNA synthesis of spleen lymphocytes; effect, Con-A ([1]; 400 to 800 mg/kg i.p., 4 days): significant anti-proliferative effect; % Lysis ([2]; E + D (TDS effector, no stimulator), E/T 10:1): 0.7%; % Lysis ([2]; E + D (TDS effector, no stimulator), E/T 30:1): 4.6%; % Lysis ([2]; E + D (TDS effector, no stimulator), E/T 100:1): 6.6%; % Lysis ([2]; E + S + D (TDS effector, stimulator), E/T 10:1): 0.5%; % Lysis ([2]; E + S + D (TDS effector, stimulator), E/T 30:1): 3.6%; % Lysis ([2]; E + S + D (TDS effector, stimulator), E/T 100:1): 13.4%; enhancement of CTL activity ([2]; FLC-745 target system (Example 28)): not observed; % Lysis ([2]; N + D (normal effector, no stimulator), E/T 10:1): -3.5%; % Lysis ([2]; N + D (normal effector, no stimulator), E/T 30:1): 0.9%; % Lysis ([2]; N + D (normal effector, no stimulator), E/T 100:1): 13.9%; % Lysis ([2]; N + S + D (normal effector, stimulator), E/T 10:1): -1.1%; % Lysis ([2]; N + S + D (normal effector, stimulator), E/T 30:1): -0.8%; % Lysis ([2]; N + S + D (normal effector, stimulator), E/T 100:1): 5.8%; Median Survival Time ([3]; 25 mg/kg): 20 days; Median Survival Time ([3]; 50 mg/kg): 21 days; Median Survival Time ([3]; 100 mg/kg): 30 days; Median Survival Time ([3]; 200 mg/kg): 30 days; Median Survival Time ([3]; 400 mg/kg): 25 days; dissolution [4]: dissolves completely

Source: patent publication US4620014A, “2-furylbutyrolactones and methods for using same” (priority 1983, dated 1986)
